# Source: article PMC10023787, “Trio-pharmacophore DNA-encoded chemical library for simultaneous selection of fragments and linkers” (Nature Communications, 2023)
# Values joined by “and” are separate entries in the source; they are usually repeats but may differ in a detail not shown here. Equal entries are not always repeated.
# Experiments:
# MMP-2 = target: T1, MMP-2 (Homo sapiens, UniProt P08253); test: MMP-2 inhibition assay (fluorogenic peptide substrate); format: biochemical
# T1 construct: purchased Sino Biological 10082-HNAH
# T1 sequence (P08253 110-660): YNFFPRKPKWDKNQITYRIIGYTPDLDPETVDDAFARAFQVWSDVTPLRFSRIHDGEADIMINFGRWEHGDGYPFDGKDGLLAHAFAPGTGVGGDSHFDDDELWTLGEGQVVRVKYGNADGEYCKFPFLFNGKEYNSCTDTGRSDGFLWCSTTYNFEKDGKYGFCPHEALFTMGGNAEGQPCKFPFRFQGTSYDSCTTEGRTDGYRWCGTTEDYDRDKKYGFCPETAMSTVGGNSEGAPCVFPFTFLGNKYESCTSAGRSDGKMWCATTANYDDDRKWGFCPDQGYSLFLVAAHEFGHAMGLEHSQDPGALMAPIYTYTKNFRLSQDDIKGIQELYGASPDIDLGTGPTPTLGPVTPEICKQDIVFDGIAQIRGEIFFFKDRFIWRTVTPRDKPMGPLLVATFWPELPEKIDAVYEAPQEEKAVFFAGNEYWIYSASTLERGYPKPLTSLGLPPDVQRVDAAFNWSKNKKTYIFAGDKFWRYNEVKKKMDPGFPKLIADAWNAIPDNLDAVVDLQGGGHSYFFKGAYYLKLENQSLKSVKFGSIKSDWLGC
# How it was run: (§1)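 Human proMMP-2 and proMMP-9 were activated with 1 mM APMA for 2 h at 37 °C, then used at 6.5 nM (MMP-2) or 10 nM (MMP-9) final in Tris/NaCl/CaCl2/Brij 35 buffer, pH 7.5. After 30 min preincubation with compound at RT, 25 μM FRET peptide substrate was added and fluorescence (ex 280/em 360 nm) followed for 30 min. IC50 came from logistic fits of Vmax.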
# MMP-9 = target: T2, MMP-9 (Homo sapiens, UniProt P14780); test: MMP-9 inhibition assay (fluorogenic peptide substrate); format: biochemical; design: remaining enzyme activity (% of control): scale not given here
# T2 construct: purchased Sino Biological 10327-HNAH
# T2 sequence (P14780 107-707 limits assumed): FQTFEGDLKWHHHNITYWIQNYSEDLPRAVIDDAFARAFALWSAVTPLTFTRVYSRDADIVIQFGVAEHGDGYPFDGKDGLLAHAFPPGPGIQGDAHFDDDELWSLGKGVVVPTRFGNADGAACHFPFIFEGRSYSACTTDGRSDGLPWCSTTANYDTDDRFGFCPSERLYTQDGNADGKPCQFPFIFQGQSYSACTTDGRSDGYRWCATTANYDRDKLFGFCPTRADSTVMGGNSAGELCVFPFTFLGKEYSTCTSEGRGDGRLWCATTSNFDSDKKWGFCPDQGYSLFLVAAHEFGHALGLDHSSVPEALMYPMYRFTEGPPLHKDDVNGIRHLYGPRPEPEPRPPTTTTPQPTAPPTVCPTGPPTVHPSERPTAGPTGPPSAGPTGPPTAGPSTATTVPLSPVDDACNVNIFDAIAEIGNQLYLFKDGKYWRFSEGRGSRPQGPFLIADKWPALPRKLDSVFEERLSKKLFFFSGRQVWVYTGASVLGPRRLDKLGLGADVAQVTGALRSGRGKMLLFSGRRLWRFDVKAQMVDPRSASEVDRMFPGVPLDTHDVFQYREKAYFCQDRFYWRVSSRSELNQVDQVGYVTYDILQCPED
# How it was run: as §1
# [1] = mean ± SE; n.d: not detected; Fig. 5d unit inferred, µM; read-out: IC50
# [2] = mean ± SE; n.d: not detected; Fig. 5e prints no unit, µM; read-out: IC50
smiles,measurement,setting,value
Cn1c(O)nc2cc(C(=O)NCCCC/C=C/C(=O)CC(=O)NCC34CC5CC(CC(C5)C3)C4)cnc21 [66+826 Linker 12],remaining activity (%),MMP-2; MMP-2; concentration 0.12 µM,102.70
same,remaining activity (%),MMP-2; MMP-2; concentration 0.49 µM,99.61
same,remaining activity (%),MMP-2; MMP-2; concentration 1.95 µM,102.06
same,remaining activity (%),MMP-2; MMP-2; concentration 7.81 µM,101.87
same,remaining activity (%),MMP-2; MMP-2; concentration 31.25 µM,95.39
same,remaining activity (%),MMP-2; MMP-2; concentration 125.00 µM,94.81
same,remaining activity (%),MMP-2; MMP-2; concentration 500.00 µM,77.92
same,remaining enzyme activity (% of control),MMP-9; MMP-9; concentration 0.12 µM,93.60
same,remaining enzyme activity (% of control),MMP-9; MMP-9; concentration 0.49 µM,81.81
same,remaining enzyme activity (% of control),MMP-9; MMP-9; concentration 1.95 µM,96.97
same,remaining enzyme activity (% of control),MMP-9; MMP-9; concentration 7.81 µM,103.45
same,remaining enzyme activity (% of control),MMP-9; MMP-9; concentration 31.25 µM,97.31
same,remaining enzyme activity (% of control),MMP-9; MMP-9; concentration 125.00 µM,94.06
same,remaining enzyme activity (% of control),MMP-9; MMP-9; concentration 500.00 µM,80.41
Cc1cc(=O)[nH]c(-n2nc(C)c(CCC(=O)NCCOCCOCCNC(=O)c3cnc4c(c3)nc(O)n4C)c2C)n1 [693+826 Linker 10],remaining activity (%),MMP-2; MMP-2; concentration 0.12 µM,88.40
same,remaining activity (%),MMP-2; MMP-2; concentration 0.49 µM,91.73
same,remaining activity (%),MMP-2; MMP-2; concentration 1.95 µM,91.10
same,remaining activity (%),MMP-2; MMP-2; concentration 7.81 µM,90.16
same,remaining activity (%),MMP-2; MMP-2; concentration 31.25 µM,89.04
same,remaining activity (%),MMP-2; MMP-2; concentration 125.00 µM,84.64
same,remaining activity (%),MMP-2; MMP-2; concentration 500.00 µM,68.06
same,remaining enzyme activity (% of control),MMP-9; MMP-9; concentration 0.12 µM,93.04
same,remaining enzyme activity (% of control),MMP-9; MMP-9; concentration 0.49 µM,87.11
same,remaining enzyme activity (% of control),MMP-9; MMP-9; concentration 1.95 µM,89.00
same,remaining enzyme activity (% of control),MMP-9; MMP-9; concentration 7.81 µM,87.83
same,remaining enzyme activity (% of control),MMP-9; MMP-9; concentration 31.25 µM,75.00
same,remaining enzyme activity (% of control),MMP-9; MMP-9; concentration 125.00 µM,69.92
same,remaining enzyme activity (% of control),MMP-9; MMP-9; concentration 500.00 µM,55.88
Cc1cc(=O)[nH]c(-n2nc(C)c(CCC(=O)NCCNC(=O)CC(=O)/C=C/CCCCNC(=O)c3cncc(O)c3)c2C)n1 [693+828 Linker 12],remaining activity at 0.00831 µM,"MMP-2; MMP-2; concentration 0.00831 µM; read-out: Mean (MMP-2 dose-response, Supplementary fig 15)",95.7%
same,remaining activity at 0.04 µM,"MMP-2; MMP-2; concentration 0.04 µM; read-out: Mean (MMP-2 dose-response, Supplementary fig 15)",92.8%
same,remaining activity at 0.21 µM,"MMP-2; MMP-2; concentration 0.21 µM; read-out: Mean (MMP-2 dose-response, Supplementary fig 15)",86.2%
same,remaining activity at 1.04 µM,"MMP-2; MMP-2; concentration 1.04 µM; read-out: Mean (MMP-2 dose-response, Supplementary fig 15)",77.4%
same,remaining activity at 5.19 µM,"MMP-2; MMP-2; concentration 5.19 µM; read-out: Mean (MMP-2 dose-response, Supplementary fig 15)",60.2%
same,remaining activity at 25.96 µM,"MMP-2; MMP-2; concentration 25.96 µM; read-out: Mean (MMP-2 dose-response, Supplementary fig 15)",25.3%
same,remaining activity at 129.8 µM,"MMP-2; MMP-2; concentration 129.80 µM; read-out: Mean (MMP-2 dose-response, Supplementary fig 15)",0%
same,remaining activity at 649 µM,"MMP-2; MMP-2; concentration 649.00 µM; read-out: Mean (MMP-2 dose-response, Supplementary fig 15)",0%
same,IC50,MMP-2; [1],10 µM
same,remaining activity at 0.04 µM,"MMP-9; MMP-9; concentration 0.04 µM; read-out: Mean (MMP-9 dose-response, Supplementary fig 15)",95.5%
same,remaining activity at 0.21 µM,"MMP-9; MMP-9; concentration 0.21 µM; read-out: Mean (MMP-9 dose-response, Supplementary fig 15)",89%
same,remaining activity at 1.04 µM,"MMP-9; MMP-9; concentration 1.04 µM; read-out: Mean (MMP-9 dose-response, Supplementary fig 15)",89.5%
same,remaining activity at 5.19 µM,"MMP-9; MMP-9; concentration 5.19 µM; read-out: Mean (MMP-9 dose-response, Supplementary fig 15)",71.7%
same,remaining activity at 25.96 µM,"MMP-9; MMP-9; concentration 25.96 µM; read-out: Mean (MMP-9 dose-response, Supplementary fig 15)",32.6%
same,remaining activity at 129.8 µM,"MMP-9; MMP-9; concentration 129.80 µM; read-out: Mean (MMP-9 dose-response, Supplementary fig 15)",0%
same,remaining activity at 649 µM,"MMP-9; MMP-9; concentration 649.00 µM; read-out: Mean (MMP-9 dose-response, Supplementary fig 15)",0%
same,IC50,MMP-9; [2],14.8 µM and 15 µM
O=C(CCC(=O)NCc1c[nH]nn1)NCCOCCOCCNC(=O)Cn1cnc2c(oc3ccccc32)c1=O [182+787 Linker 10],remaining activity (%),"MMP-2; MMP-2, concentration 0.0156 µM",104.21
same,remaining activity (%),"MMP-2; MMP-2, concentration 0.08 µM",112.47
same,remaining activity (%),"MMP-2; MMP-2, concentration 0.39 µM",110.12
same,remaining activity (%),"MMP-2; MMP-2, concentration 1.95 µM",98.52
same,remaining activity (%),MMP-2; MMP-2; concentration 9.75 µM,97.01
same,remaining activity (%),MMP-2; MMP-2; concentration 48.76 µM,78.57
same,remaining activity (%),MMP-2; MMP-2; concentration 243.80 µM,30.14
same,remaining activity (%),MMP-2; MMP-2; concentration 1219.00 µM,0.00
same,IC50,MMP-2; [1],137 ± 37.5 µM
same,remaining enzyme activity (% of control),"MMP-9; MMP-9, concentration 0.08 µM",100.62
same,remaining enzyme activity (% of control),"MMP-9; MMP-9, concentration 0.39 µM",94.43
same,remaining enzyme activity (% of control),"MMP-9; MMP-9, concentration 1.95 µM",101.63
same,remaining enzyme activity (% of control),"MMP-9; MMP-9, concentration 9.75 µM",94.48
same,remaining enzyme activity (% of control),"MMP-9; MMP-9, concentration 48.76 µM",72.77
same,remaining enzyme activity (% of control),"MMP-9; MMP-9, concentration 243.80 µM",28.00
same,remaining enzyme activity (% of control),"MMP-9; MMP-9, concentration 1219.00 µM",0.00
same,IC50,MMP-9; [2],126 ± 12 µM
